Data as given in BigSolDB 2.1.

CC1=C(O)C(=O)C(C)O1 (configuration not stated)
solubility (mole fraction)
Details | 283.15 K | 288.15 K | 293.15 K | 298.15 K | 303.15 K | 308.15 K | 313.15 K
in ethanol | 0.12 | 0.151 | 0.188 | 0.234 | 0.287 | 0.351 | 0.427
in methanol | 0.143 | 0.174 | 0.21 | 0.257 | 0.31 | 0.374 | 0.449
in n-butanol | 0.0954 | 0.124 | 0.156 | 0.196 | 0.247 | 0.307 | 0.382
in n-hexane | 0.0054 | 0.0073 | 0.0096 | 0.0125 | 0.0163 | 0.0211 | 0.0271
in n-propanol | 0.11 | 0.138 | 0.174 | 0.216 | 0.268 | 0.332 | 0.408
in water | 0.0091 | 0.015 | 0.0251 | 0.0408 | 0.0665 | 0.107 | 0.173
